The target of one experiment is TAK1 (Homo sapiens, UniProt O43318). Conditions: 1 µM; binder.
A further experiment deals with JAK2 (Homo sapiens, UniProt O60674). The following applies: JH1 domain catalytic; binder.
Another experiment deals with MEK4 (Homo sapiens, UniProt P45985). Conditions: 1 µM; binder.
In the next experiment the target is GSK3B (Homo sapiens, UniProt P49841). Conditions: 1 µM; binder.
In the next experiment the target is DRAK2 (Homo sapiens, UniProt O94768). The following applies: 1 µM; binder.
Chain of DRAK2 (O94768 whole entry): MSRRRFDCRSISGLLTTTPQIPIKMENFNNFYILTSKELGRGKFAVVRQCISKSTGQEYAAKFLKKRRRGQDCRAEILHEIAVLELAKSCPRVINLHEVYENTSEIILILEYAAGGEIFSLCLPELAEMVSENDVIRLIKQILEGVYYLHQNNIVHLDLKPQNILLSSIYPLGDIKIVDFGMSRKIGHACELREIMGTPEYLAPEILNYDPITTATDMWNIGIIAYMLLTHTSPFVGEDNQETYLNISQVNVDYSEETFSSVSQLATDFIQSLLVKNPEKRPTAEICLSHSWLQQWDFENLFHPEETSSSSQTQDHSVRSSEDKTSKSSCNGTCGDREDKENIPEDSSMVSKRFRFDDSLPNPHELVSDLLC
A further experiment has as its target PHKG2 (Homo sapiens, UniProt P15735). Conditions: 1 µM; binder.
A further experiment concerns the target PAK1 (Homo sapiens, UniProt Q13153). The following applies: 1 µM; binder.
The next experiment addresses GRK2 (Homo sapiens, UniProt P25098). The following applies: 1 µM; binder.
Another experiment has as its target p38-beta (Homo sapiens, UniProt Q15759). The following applies: 1 µM; binder.
The next experiment concerns the target BTK (Homo sapiens, UniProt Q06187). Conditions: 1 µM; binder.
The target of the next experiment is BMPR2 (Homo sapiens, UniProt Q13873). Conditions: 1 µM; binder.
Chain of BMPR2 (Q13873 whole entry): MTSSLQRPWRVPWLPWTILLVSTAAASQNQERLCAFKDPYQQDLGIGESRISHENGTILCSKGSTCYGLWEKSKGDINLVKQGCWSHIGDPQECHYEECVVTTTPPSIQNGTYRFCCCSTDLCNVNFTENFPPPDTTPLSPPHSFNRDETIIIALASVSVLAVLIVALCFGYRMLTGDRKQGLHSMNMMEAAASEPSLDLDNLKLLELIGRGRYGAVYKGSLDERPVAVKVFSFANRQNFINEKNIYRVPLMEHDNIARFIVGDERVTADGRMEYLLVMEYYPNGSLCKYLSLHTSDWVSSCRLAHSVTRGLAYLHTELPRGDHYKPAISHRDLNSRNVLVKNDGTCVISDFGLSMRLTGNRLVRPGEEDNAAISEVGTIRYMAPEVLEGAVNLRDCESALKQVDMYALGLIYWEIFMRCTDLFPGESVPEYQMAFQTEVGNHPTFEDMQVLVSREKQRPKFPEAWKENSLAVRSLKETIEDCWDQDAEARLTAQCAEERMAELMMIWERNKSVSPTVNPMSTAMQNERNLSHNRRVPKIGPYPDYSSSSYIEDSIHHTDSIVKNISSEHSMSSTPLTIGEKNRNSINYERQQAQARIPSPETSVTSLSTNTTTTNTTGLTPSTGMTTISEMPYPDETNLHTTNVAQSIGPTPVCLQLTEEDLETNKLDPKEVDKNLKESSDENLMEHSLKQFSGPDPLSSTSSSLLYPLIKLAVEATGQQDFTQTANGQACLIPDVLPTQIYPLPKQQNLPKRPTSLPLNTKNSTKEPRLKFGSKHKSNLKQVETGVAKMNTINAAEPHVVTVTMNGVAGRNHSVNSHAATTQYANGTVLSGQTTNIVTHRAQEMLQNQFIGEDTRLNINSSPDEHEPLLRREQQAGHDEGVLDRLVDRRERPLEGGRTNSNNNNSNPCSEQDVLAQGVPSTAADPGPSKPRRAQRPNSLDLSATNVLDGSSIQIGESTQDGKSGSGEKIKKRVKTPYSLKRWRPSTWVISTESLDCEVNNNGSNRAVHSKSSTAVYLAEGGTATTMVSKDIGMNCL
The target of a further experiment is SYK (Homo sapiens, UniProt P43405). Conditions: 1 µM; binder.
A further experiment concerns the target PRKCQ (Homo sapiens, UniProt Q04759). The following applies: 1 µM; binder.
The next experiment deals with PDPK1 (Homo sapiens, UniProt O15530). The following applies: 1 µM; binder.
Chain of PDPK1 (O15530 whole entry): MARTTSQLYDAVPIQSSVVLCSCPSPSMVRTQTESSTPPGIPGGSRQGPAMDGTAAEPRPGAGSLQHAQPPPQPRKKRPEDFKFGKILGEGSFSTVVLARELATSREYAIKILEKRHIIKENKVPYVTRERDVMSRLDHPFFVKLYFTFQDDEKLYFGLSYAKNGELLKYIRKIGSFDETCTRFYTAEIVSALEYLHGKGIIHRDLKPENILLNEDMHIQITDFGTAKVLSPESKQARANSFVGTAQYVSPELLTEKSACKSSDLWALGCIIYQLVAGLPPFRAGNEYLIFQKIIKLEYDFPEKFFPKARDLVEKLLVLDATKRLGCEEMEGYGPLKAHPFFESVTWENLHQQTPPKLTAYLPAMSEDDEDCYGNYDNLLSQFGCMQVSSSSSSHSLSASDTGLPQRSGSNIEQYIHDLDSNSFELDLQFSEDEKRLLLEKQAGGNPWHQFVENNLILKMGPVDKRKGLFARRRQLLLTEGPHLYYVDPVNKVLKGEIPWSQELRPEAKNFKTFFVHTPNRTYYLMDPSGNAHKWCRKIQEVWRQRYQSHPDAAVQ
For the next experiment, the target named is MAK (Homo sapiens, UniProt P20794). Conditions: 1 µM; binder.
The next experiment has as its target GCN2(Kin.Dom.2,S808G) (Homo sapiens, UniProt Q9P2K8, S808G). The following applies: 1 µM; binder.
The next experiment concerns the target LYN (Homo sapiens, UniProt P07948). Conditions: 1 µM; binder.
A further experiment deals with T1, FLT3 (Homo sapiens, UniProt P36888).
T1 sequence (P36888 1-993): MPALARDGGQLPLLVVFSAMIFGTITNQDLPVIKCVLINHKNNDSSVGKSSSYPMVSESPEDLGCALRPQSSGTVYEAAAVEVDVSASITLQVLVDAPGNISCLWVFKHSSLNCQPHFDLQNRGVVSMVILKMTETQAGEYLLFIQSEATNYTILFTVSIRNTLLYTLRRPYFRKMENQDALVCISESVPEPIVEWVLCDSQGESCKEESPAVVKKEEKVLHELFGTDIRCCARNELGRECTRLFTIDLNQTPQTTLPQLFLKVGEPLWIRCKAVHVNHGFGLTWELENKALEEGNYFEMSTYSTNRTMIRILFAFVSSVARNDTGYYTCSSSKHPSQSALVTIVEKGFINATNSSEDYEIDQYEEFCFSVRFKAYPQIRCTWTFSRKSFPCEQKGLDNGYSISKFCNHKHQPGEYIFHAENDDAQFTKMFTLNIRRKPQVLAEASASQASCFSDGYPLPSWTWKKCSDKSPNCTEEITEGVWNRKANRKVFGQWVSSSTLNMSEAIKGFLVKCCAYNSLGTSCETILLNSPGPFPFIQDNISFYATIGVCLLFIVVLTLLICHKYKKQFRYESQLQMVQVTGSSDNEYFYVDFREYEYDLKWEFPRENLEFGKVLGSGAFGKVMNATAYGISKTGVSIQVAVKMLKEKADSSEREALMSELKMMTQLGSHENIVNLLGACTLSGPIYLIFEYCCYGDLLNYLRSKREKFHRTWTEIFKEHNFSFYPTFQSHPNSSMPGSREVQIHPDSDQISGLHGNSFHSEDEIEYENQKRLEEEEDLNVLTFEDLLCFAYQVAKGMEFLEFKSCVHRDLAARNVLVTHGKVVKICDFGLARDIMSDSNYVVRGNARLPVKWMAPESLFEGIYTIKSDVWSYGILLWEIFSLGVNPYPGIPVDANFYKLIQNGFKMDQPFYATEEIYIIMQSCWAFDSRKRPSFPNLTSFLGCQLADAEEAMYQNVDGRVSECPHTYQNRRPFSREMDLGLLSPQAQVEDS
The following applies: 1 µM; binder.

The target in the next experiment is SIK1 (Homo sapiens, UniProt P57059). Conditions: 1 µM; binder.
Chain of SIK1 (P57059 whole entry): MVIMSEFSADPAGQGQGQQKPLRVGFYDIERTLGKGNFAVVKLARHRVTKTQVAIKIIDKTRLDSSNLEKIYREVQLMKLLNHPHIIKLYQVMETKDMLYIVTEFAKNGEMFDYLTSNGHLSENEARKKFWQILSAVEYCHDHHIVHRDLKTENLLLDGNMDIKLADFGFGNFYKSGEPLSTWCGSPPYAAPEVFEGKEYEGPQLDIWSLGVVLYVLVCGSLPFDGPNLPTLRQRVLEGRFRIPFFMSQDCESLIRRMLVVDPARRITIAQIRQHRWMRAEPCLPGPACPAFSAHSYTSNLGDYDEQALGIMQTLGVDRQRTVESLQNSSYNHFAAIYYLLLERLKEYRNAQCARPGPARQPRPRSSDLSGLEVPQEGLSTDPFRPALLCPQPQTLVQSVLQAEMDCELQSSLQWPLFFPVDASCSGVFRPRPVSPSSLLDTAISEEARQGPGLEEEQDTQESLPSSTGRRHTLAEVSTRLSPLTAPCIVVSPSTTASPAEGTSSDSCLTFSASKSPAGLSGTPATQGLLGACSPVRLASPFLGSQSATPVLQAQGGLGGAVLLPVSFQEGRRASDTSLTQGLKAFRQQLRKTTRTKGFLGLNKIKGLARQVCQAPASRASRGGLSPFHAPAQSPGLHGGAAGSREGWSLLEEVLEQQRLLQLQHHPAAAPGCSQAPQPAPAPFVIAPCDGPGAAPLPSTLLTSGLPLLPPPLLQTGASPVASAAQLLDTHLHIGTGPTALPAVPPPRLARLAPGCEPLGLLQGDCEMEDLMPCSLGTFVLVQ
In another experiment the target is MELK (Homo sapiens, UniProt Q14680). Conditions: 1 µM; binder.
Chain of MELK (Q14680 whole entry): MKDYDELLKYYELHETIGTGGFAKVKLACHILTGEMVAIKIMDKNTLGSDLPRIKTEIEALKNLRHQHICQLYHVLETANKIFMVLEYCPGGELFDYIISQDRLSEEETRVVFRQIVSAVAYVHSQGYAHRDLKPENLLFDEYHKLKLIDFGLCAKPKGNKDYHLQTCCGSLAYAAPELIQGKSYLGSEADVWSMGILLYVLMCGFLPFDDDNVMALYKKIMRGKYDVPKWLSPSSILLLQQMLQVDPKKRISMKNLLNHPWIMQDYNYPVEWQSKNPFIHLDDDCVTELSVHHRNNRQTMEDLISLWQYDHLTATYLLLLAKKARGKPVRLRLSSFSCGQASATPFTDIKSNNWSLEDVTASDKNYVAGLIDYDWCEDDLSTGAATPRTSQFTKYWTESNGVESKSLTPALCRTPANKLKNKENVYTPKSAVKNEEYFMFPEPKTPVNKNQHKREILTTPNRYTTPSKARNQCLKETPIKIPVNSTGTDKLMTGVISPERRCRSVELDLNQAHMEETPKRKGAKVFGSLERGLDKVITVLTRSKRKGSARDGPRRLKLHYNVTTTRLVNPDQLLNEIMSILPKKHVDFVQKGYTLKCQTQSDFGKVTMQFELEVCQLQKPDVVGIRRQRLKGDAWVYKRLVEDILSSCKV
Another experiment has as its target RIPK1 (Homo sapiens, UniProt Q13546). Conditions: 1 µM; binder.

The structures appear in SMILES notation.

Results on one molecule are retold here after paper doi:10.1101/2021.04.08.439011v1 (biorxiv, 2021).

Chain of BTK (Q06187 whole entry): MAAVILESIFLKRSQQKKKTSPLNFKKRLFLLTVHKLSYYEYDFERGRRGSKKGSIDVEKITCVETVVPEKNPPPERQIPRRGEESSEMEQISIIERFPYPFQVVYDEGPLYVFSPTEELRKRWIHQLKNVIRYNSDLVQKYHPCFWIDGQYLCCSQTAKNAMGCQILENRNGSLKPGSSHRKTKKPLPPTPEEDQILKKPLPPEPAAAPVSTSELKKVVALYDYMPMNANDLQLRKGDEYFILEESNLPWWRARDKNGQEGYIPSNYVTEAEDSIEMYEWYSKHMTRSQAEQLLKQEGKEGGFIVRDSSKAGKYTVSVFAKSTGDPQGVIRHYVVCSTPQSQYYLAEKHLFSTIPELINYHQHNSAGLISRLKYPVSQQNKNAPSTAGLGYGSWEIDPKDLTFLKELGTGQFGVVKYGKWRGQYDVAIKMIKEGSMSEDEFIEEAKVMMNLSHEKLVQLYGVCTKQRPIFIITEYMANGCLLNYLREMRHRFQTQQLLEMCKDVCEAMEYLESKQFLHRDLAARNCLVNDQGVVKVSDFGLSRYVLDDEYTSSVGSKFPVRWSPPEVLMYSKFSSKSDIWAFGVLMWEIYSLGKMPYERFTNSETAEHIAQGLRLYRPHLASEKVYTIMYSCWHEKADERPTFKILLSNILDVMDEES
Chain of GRK2 (P25098 whole entry): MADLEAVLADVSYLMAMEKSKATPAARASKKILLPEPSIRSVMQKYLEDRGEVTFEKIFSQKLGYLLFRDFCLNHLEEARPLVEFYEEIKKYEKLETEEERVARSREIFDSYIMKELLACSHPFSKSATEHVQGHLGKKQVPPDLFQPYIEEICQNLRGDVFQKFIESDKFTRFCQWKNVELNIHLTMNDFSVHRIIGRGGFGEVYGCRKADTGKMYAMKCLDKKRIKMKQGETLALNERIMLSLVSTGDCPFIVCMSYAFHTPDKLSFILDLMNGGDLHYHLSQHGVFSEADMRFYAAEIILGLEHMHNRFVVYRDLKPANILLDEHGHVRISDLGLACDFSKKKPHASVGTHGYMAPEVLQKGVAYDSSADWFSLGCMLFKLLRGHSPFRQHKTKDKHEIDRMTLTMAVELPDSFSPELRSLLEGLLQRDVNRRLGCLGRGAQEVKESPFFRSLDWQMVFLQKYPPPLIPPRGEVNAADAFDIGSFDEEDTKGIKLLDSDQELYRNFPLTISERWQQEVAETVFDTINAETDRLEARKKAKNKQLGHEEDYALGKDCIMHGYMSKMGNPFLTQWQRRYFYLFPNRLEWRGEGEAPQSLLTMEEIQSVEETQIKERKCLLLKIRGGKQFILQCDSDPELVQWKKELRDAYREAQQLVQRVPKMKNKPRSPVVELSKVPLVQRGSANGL

As for `CNc1ncc2cc(-c3ccc(-c4cccc(C)n4)cc3Cl)c(=O)n(C[C@H]3OC[C@H](N)CO3)c2n1` [compound 6, G-5555], the “Percent Control” value at TAK1 was 92%; at JAK2, 83%; at MEK4 it was 9.6%; on GSK3B it was 100%; at DRAK2 it was 100%; on PHKG2, 100%. The “Percent Control” value amounted to 4.5% at PAK1; 100% on GRK2; 100% at p38-beta; 63% on BTK; 100% at BMPR2; 100% on SYK. For the same molecule, the “Percent Control” value on PRKCQ turned out to be 55%; on PDPK1, 71%; at MAK, 100%; at GCN2(Kin.Dom.2,S808G), 63%; at LYN, 74%; at FLT3, 100%. In addition, the “Percent Control” value at SIK1 is on record as 0.6%; at MELK it was 47%; at RIPK1, 100%.
